Measured values taken from patent US6689357B2, “Non-obligate predatory bacterium Burkholderia casidae and uses thereof” (Virginia Tech Intellectual Properties, Inc., priority 1997, dated 2004).
≈ marks a conversion by molar mass, not a printed value.

Test system: B. casidae strain 2.2N
Assay: microbe, parasite or virus in culture
Format: cell-based, Burkholderia casidae
Conditions: for MIC: Burkholderia, 2.2N, read-out: Minimal Inhibitory Concentration; for strain 2.2N resistant or susceptible to the antibiotic: Sceptor Pseudomonas/Resistant MIC Panel; for Minimal Inhibitory Concentration: against B. casidae strain 2.2N

| Compound | MIC [µg/mL] | strain 2.2N resistant or susceptible to the antibiotic | Minimal Inhibitory Concentration |
| --- | --- | --- | --- |
| NCC[C@H](O)C(=O)N[C@@H]1C[C@H](N)[C@@H](O[C@H]2O[C@H](CN)[C@@H](O)[C@H](O)[C@H]2O)[C@H](O)[C@H]1O[C@H]1O[C@H](CO)[C@@H](O)[C@H](N)[C@H]1O [Amikacin] | > 64 | resistant |  |
| CCN1CCN(C(=O)N[C@@H](C(=O)N[C@@H]2C(=O)N3C(C(=O)O)=C(CSc4nnnn4C)CS[C@H]23)c2ccc(O)cc2)C(=O)C1=O [Cefoperazone] | > 16 | resistant |  |
| CO/N=C(\C(=O)N[C@@H]1C(=O)N2C(C(=O)O)=C(COC(C)=O)CS[C@H]12)c1csc(N)n1 [Cefotaxime] | 64 (≈ 141 µM) | susceptible |  |
| CC(C)(O/N=C(\C(=O)N[C@@H]1C(=O)N2C(C(=O)[O-])=C(C[n+]3ccccc3)CS[C@H]12)c1csc(N)n1)C(=O)O [Ceftazimine] |  | susceptible | 8 micrograms/ml |
| CO/N=C(\C(=O)N[C@@H]1C(=O)N2C(C(=O)O)=CCS[C@H]12)c1csc(N)n1 [Ceftizoxime] | 16 (≈ 41.7 µM) | susceptible |  |
| CO/N=C(\C(=O)N[C@@H]1C(=O)N2C(C(=O)O)=C(CSc3nc(=O)c(=O)[nH]n3C)CS[C@H]12)c1csc(N)n1 [Ceftriaxone] | 128 (≈ 231 µM) | susceptible |  |
| C[C@@H](O)[C@H]1C(=O)N2C(C(=O)O)=C(SCCN=CN)C[C@H]12 [Imipenem] | 16 (≈ 53.4 µM) |  |  |
| CN(C)[C@@H]1C(O)=C(C(N)=O)C(=O)[C@@]2(O)C(O)=C3C(=O)c4c(O)cccc4[C@@](C)(O)[C@H]3C[C@@H]12 [Tetracycline] | > 8 |  |  |
| NC[C@H]1O[C@H](O[C@H]2[C@H](O)[C@@H](O[C@H]3O[C@H](CO)[C@@H](O)[C@H](N)[C@H]3O)[C@H](N)C[C@@H]2N)[C@H](N)C[C@@H]1O [Tobramycin] | > 16 | resistant |  |
| O=C(O)c1cn(C2CC2)c2cc(N3CCNCC3)c(F)cc2c1=O [ciprofloxacin] |  | susceptible |  |
| Gentamycin |  | resistant | >16 micrograms/ml |
| Tricarcillin/Clavulinic Acid |  | resistant | >128/2 |
| Trimethoprim/Sulfamethoxazole |  | susceptible | 4/76 |
